The values below come from ChEMBL document CHEMBL1649420, “Identifying chelators for metalloprotein inhibitors using a fragment-based approach” (J Med Chem, 2011).

In general, inhibition refers to the relative decrease from the control value, in per cent.

Experiment [1] addresses T1, Polyunsaturated fatty acid 5-lipoxygenase (Homo sapiens) (UniProt P09917).
T1 sequence (whole entry): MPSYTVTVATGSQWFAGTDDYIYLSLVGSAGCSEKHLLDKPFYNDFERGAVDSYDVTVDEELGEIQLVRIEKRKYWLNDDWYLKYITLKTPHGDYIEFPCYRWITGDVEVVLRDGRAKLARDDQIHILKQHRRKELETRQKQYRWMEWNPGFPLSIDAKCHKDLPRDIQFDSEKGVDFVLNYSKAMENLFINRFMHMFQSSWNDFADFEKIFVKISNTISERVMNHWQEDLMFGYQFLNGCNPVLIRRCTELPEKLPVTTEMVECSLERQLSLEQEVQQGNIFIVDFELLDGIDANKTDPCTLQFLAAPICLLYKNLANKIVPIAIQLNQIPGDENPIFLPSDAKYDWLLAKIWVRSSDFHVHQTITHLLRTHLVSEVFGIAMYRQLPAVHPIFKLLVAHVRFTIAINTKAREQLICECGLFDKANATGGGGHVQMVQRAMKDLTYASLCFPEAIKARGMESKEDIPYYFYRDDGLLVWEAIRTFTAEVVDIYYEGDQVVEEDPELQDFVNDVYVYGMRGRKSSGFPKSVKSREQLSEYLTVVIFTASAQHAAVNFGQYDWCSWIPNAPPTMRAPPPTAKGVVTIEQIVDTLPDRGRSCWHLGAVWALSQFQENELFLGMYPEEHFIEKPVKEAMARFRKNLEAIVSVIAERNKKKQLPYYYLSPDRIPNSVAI
Kind of experiment: Inhibition of human recombinant 5-lipoxygenase at 1 mM after 10 mins by fluorescence assay.

Experiment [2] has as its target T2, Tyrosinase (Agaricus bisporus) (UniProt O42713).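 Also: inhibition measured at 10 min.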
T2 sequence (whole entry): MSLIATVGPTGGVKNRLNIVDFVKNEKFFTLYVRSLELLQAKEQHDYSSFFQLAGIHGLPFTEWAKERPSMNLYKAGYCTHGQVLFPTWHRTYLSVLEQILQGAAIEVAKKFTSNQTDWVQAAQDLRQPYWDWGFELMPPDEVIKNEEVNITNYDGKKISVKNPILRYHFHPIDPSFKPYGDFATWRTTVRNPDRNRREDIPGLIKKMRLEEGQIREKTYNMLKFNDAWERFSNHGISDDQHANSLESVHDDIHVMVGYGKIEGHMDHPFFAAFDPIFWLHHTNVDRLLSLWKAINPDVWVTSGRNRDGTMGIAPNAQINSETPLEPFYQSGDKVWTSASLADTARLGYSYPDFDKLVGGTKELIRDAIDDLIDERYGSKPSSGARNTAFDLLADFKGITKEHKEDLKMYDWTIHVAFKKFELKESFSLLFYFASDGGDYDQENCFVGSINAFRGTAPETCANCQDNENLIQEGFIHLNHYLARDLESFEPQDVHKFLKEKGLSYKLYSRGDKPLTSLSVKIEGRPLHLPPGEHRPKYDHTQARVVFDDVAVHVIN
As to conditions: at 1 mM.

Experiment [3] deals with T3, Lethal factor (Bacillus anthracis) (UniProt P15917).
T3 sequence (whole entry): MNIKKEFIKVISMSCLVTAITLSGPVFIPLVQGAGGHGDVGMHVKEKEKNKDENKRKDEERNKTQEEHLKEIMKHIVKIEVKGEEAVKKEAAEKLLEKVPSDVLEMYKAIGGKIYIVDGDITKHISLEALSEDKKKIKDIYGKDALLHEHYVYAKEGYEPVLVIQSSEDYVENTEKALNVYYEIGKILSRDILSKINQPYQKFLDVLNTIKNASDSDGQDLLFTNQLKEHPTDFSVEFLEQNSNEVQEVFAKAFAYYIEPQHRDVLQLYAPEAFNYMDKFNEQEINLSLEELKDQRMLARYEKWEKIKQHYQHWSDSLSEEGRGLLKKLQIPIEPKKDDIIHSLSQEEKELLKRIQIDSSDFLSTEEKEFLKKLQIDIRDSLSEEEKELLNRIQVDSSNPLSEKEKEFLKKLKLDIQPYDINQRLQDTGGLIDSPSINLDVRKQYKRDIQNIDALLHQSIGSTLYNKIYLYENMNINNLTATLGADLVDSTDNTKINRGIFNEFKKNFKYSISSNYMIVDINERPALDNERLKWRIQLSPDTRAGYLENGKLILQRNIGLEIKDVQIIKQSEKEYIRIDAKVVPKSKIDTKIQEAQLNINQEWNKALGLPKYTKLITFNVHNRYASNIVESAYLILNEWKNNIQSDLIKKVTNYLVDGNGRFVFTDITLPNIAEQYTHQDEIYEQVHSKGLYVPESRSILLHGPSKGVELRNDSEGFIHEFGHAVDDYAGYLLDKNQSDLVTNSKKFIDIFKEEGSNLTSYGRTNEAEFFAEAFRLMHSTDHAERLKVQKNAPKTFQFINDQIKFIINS
Conditions: at 1 mM.

Experiment [4] has as its target T4, Interstitial collagenase (Homo sapiens) (UniProt P03956).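 Also: recombinant human enzyme, with inhibition measured after 30 min.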
T4 sequence (whole entry): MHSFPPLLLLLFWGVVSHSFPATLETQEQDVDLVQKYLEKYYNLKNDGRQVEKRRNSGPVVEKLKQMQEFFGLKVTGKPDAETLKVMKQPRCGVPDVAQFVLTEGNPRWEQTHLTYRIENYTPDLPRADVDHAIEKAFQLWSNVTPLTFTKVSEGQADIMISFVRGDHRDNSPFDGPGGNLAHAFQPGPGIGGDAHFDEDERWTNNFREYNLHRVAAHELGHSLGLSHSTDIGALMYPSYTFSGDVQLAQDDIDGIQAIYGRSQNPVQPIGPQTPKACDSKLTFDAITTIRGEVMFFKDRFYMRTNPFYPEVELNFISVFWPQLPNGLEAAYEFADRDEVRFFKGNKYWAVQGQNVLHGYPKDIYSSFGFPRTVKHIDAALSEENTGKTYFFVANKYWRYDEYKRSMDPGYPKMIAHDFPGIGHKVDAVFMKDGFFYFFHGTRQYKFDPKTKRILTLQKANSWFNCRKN
Conditions: at 1 mM.

The target in experiment [5] is Stromelysin-1 (Homo sapiens) (UniProt P08254). Conditions: at 1 mM.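 Also: recombinant enzyme, inhibition read after a 30 min incubation.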
Experiment [6] deals with Neutrophil collagenase (Homo sapiens) (UniProt P22894). Conditions: at 1 mM.
For experiment [7], the target named is Matrix metalloproteinase-9 (Homo sapiens) (UniProt P14780). As to conditions: at 1 mM.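 Also: recombinant human MMP9, activity read after 30 min.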
Experiment [8] concerns the target T5, Nitric oxide synthase, inducible (Mus musculus) (UniProt P29477).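 Also: recombinant enzyme, activity read out colorimetrically after 40 min.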
T5 sequence (whole entry): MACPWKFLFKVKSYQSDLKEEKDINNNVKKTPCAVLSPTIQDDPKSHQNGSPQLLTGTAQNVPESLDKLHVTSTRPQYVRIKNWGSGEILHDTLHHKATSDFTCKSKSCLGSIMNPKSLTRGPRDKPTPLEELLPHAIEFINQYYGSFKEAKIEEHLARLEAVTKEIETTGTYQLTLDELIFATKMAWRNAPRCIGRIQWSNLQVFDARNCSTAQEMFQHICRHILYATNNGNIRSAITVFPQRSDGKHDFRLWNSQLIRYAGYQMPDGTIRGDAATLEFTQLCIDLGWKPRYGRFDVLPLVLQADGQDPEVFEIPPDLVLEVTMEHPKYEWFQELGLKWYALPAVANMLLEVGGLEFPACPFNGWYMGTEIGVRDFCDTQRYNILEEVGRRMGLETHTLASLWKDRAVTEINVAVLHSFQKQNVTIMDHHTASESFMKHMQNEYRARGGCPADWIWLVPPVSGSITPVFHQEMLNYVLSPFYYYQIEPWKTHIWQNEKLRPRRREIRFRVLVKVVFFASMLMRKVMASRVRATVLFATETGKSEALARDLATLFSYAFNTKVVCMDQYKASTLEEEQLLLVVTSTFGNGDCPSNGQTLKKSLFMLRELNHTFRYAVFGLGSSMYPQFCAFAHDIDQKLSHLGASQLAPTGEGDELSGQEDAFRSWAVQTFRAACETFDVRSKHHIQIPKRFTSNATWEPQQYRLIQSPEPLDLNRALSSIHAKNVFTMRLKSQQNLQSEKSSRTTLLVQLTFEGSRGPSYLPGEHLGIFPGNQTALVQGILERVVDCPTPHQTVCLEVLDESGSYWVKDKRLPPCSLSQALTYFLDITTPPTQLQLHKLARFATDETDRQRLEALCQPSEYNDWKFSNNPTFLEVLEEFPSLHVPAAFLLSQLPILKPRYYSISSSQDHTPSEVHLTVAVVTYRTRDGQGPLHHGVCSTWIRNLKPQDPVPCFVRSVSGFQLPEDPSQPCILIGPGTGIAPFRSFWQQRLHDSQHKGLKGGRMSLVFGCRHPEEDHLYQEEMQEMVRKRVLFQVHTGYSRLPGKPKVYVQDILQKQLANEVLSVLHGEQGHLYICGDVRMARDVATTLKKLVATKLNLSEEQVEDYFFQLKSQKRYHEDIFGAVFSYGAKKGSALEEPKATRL
Conditions: at 1 mM.

Experiment [9] addresses 72 kDa type IV collagenase (Homo sapiens, UniProt P08253). As to conditions: at 1 mM.

Chain of Stromelysin-1 (Homo sapiens) (P08254 100-477 limits assumed): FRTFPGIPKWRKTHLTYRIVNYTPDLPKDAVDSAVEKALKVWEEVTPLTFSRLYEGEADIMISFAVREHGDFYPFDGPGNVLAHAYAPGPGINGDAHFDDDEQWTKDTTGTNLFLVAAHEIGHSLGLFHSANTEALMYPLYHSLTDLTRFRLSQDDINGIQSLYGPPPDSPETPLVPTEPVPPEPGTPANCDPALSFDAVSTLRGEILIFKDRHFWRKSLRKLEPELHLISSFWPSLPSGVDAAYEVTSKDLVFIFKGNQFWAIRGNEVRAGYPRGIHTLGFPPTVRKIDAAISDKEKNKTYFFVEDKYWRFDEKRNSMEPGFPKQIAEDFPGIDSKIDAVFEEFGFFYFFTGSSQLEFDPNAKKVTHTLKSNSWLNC
Chain of 72 kDa type IV collagenase (P08253 110-660 limits assumed): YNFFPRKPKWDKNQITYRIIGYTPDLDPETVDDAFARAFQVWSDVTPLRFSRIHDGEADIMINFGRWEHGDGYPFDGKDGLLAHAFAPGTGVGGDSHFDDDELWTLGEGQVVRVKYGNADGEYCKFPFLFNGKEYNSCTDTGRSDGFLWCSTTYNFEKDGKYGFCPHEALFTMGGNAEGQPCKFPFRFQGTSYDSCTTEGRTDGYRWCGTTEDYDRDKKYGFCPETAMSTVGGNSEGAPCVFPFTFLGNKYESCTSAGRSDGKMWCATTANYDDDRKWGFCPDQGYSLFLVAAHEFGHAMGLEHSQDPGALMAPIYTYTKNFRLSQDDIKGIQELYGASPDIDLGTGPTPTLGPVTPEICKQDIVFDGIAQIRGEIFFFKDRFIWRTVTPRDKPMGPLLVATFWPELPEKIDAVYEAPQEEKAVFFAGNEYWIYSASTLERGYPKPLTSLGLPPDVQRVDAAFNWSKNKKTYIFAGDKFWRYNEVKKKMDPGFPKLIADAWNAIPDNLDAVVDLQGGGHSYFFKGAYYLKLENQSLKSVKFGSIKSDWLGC
Chain of Matrix metalloproteinase-9 (Homo sapiens) (P14780 whole entry): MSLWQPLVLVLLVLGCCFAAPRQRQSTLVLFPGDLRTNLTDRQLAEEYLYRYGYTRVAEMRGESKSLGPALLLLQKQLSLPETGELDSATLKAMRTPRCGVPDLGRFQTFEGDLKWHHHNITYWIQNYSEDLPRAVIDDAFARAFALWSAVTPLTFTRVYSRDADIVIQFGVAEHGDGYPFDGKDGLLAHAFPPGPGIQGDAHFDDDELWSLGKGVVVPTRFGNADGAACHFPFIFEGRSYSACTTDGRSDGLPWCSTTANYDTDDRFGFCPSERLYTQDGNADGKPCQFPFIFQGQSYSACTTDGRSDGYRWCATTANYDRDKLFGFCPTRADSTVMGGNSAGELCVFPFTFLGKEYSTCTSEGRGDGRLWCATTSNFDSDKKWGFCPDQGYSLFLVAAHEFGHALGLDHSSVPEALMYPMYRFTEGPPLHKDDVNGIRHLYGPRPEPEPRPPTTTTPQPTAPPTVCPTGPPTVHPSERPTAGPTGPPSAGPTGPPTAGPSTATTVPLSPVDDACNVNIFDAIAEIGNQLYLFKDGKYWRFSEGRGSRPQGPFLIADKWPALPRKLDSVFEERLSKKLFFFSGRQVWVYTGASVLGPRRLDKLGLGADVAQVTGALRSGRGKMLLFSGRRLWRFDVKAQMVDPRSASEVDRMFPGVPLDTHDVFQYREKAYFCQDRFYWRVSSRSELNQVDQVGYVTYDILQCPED
Chain of Neutrophil collagenase (Homo sapiens) (P22894 101-467 limits assumed): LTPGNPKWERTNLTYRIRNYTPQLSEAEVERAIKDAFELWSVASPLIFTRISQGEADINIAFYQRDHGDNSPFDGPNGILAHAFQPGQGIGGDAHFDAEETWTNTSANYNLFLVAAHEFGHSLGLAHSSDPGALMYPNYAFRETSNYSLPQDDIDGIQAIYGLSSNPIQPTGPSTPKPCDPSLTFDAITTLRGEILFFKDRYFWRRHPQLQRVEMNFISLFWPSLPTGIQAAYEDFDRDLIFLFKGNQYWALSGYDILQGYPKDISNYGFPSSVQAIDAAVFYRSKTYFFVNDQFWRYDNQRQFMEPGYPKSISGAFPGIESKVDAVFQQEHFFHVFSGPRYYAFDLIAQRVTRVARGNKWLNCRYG

In the case of `Cc1ccc(C(=O)O)c(O)c1`, the inhibition in [1] was 17%; in [2], 97%; in experiment [3] it was 11%; in experiment [4], 8%; in experiment [5], -1%; in experiment [6] it was 16%. Besides, the inhibition in experiment [7] came to 10%; in experiment [8], 15%.
For `O=C(O)c1cccnc1C(=O)O`, the inhibition is 30% in [1]; 98% in experiment [2]; 49% in experiment [3]; 4% in [4]; 14% in experiment [6]; -8% in experiment [7]. In experiment [8], the inhibition is 5%.
As for `Cc1cccc(C(=O)O)n1`, the inhibition is 21% in [1]; 25% in experiment [2]; 47% in experiment [3]; -9% in [4]; 48% in experiment [5]; 3% in experiment [6]. Also, the inhibition was -6% in experiment [7] and 8% in experiment [8].
For `O=C(O)c1nc(Cl)ccc1Cl`, the inhibition was 27% in [1]; 96% in experiment [2]; 12% in experiment [4]; 0% in experiment [9]; 0% in [5]; 18% in experiment [6]. In addition, the figures for the inhibition in experiment [7] and in experiment [8] were 18% and 20%, respectively.
Take `O=C(O)c1ccc[nH]1`: the inhibition in [1] was 48%; in [2] it was 69%; in experiment [3], 11%; in experiment [4] it was 8%; in [9] it was 1%; in [5], -8%. Further, the inhibition in experiment [8] was 7%.
Regarding `CC(=O)C(Cl)C(C)=O`, the inhibition in experiment [1] was 52%; in experiment [2], 86%; in experiment [3] it was 9%; in experiment [4], 11%; in experiment [9], -9%; in experiment [5] it was -6%. Also, the inhibition in [6] was -7%; in experiment [8], 80%.
With `O=C(O)c1cccc(O)n1`, the inhibition in experiment [1] was 38%; in experiment [2], 95%; in experiment [3] it was 81%; in [4], 16%; in experiment [5] it was 0%; in [6] it was 20%. The inhibition in [7] came out at 16%; in experiment [8], 6%.
As to `CCC(C(C)=O)C(C)=O`, the inhibition in experiment [1] turned out to be 62%; in experiment [2] it was 85%; in experiment [3] it was 4%; in experiment [4], 7%; in experiment [5] it was 6%; in [6], 3%. The inhibition is 1% in experiment [7] and -1% in experiment [8].
For `O=C(O)c1cccc2cccnc12`, the inhibition in [1] was 23%; in experiment [2], -2%; in experiment [4], 36%; in experiment [9], 25%; in [5], 77%; in experiment [6], 38%. Further, the inhibition worked out at 31% in experiment [7] and 11% in experiment [8].
Take `Cc1nc(O)cc(O)n1`: the inhibition is 62% in experiment [1]; 12% in experiment [2]; 14% in experiment [4]; 2% in experiment [9]; 22% in experiment [5]; 14% in [6]. The inhibition in [7] worked out at 4%; in [8] it was 1%.
For `O=C(O)c1c(O)cccc1O`, the inhibition in experiment [1] was 38%; in experiment [2], 95%; in [3], 15%; in experiment [4] it was 0%; in experiment [9], -6%; in [5] it was -4%. Moreover, the results for the inhibition in experiment [6] and in experiment [8] were -5% and 17%, respectively.
For the compound `CC(=O)CC(C)=O`, the inhibition in experiment [1] is 42%; in experiment [2], 77%; in experiment [3] it was 5%; in experiment [4], 10%; in [9] it was -5%; in experiment [5], -4%. Further, the inhibition in [6] and in experiment [8] was -6% each time.
